In patent publication US20210041447A1, “AZACARBOLINE COMPOUNDS FOR THE DETECTION OF TAU AGGREGATES” (AC IMMUNE SA, priority 2018, published 2021):
Like-named read-outs stand apart in the source and are kept apart here.

What was measured:
MAO A [1] = biological target: T1, MAO A (Homo sapiens, UniProt P21397); test: Binding affinity to MAO A in human HC brain homogenate, [18F]fluoroethyl harmine competition; details: human healthy control brain homogenate; for IC50: 18F-FEH competition; on Low affinity to MAO A (HC homogenate): key: −: poor; ∘: moderate; +: good; ++: very good; +++: excellent
T1 construct: from tissue; host or cells: human healthy control brain homogenate
T1 sequence (P21397 1-527): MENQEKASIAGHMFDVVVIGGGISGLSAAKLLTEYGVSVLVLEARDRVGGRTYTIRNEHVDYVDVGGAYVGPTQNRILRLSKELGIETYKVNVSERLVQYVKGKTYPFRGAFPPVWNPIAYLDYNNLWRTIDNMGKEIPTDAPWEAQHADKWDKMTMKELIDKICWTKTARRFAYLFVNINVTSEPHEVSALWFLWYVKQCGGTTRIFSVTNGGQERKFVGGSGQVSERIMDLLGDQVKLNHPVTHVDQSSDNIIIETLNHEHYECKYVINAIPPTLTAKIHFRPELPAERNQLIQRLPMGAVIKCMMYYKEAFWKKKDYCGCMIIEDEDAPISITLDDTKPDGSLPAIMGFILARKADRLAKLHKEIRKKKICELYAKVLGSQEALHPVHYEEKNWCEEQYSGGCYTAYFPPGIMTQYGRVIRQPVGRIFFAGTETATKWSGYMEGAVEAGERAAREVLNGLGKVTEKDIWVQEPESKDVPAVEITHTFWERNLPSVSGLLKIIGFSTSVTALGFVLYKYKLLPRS
Protocol: (§1) 20 μg of brain homogenate (without AD pathology) was incubated with a dilution series of each test compound (1000 to 0.06 nM) in the presence of 800 Bq of 18F-labeled MAO-A binder ([^18F]fluoroethyl harmine, FEH). The samples were shaken at 110 rpm for 45 min at 37° C. Samples were then filtered through GF/B 96-well filter plates and washed twice with 300 μL assay buffer (PBS containing 0.1% BSA and 2% DMSO). Thereafter, filter plates were sealed and a Fuji Film Imaging Plate (BAS-SR2025) was placed on top. The imaging plate was analyzed after overnight exposition using a Fuji Film BAS-5000. Non-specific signal was determined with samples containing ^18F-labeled FEH in the presence of assay buffer without brain substrate and competitor. Specific binding was calculated by subtracting the non-specific signal from the measured samples signal. The unblocked ^18F-labeled FEH signal was defined as total binding. IC50 values were calculated by Prism V6 (GraphPad) setting total binding to 100%.

MAO A [2] = biological target: T2, MAO A (Mus musculus, UniProt Q64133); test: Binding affinity to MAO A in mouse brain homogenate, [18F]fluoroethyl harmine competition; details: for IC50: 18F-FEH competition; on Low affinity to MAO A (mouse homogenate): key: −: poor; ∘: moderate; +: good; ++: very good; +++: excellent
T2 construct: from tissue; host or cells: mouse brain homogenate
T2 sequence (Q64133 1-526): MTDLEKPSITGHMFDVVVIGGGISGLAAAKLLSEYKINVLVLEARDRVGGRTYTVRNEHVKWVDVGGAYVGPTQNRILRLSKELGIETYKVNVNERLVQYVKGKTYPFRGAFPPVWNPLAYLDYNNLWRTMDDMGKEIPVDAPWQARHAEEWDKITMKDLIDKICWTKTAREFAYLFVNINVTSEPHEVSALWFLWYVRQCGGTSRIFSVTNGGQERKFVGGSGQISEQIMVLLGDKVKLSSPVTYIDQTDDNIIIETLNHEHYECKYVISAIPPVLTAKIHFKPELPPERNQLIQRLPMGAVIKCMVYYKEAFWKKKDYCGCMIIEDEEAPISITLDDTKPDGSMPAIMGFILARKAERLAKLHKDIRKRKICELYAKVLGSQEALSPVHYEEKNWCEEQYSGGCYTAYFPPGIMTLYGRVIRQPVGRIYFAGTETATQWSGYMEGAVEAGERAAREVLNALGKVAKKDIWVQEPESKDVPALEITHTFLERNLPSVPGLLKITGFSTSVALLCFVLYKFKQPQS
Protocol: as §1

amyloid-beta = amyloid-beta (Homo sapiens, UniProt P05067); test: Binding affinity to amyloid-beta in AD brain homogenate, competition with 18F-labeled beta-amyloid binder; design: Low affinity to amyloid-beta: key: −: poor; ∘: moderate; +: good; ++: very good; +++: excellent
Protocol: (§2) 20 μg of human Alzheimer disease brain homogenate was incubated with a dilution series of each test compound (1000 to 0.06 nM) in the presence of 800 Bq of ^18F-labeled beta-amyloid binder. The samples were shaken at 110 rpm for 45 min at 37° C. Samples were then filtered through GF/B 96-well filter plates and washed twice with 300 μL assay buffer (PBS containing 0.1% BSA and 2% DMSO). Thereafter, filter plates were sealed and a Fuji Film Imaging Plate (BAS-SR2025) was placed on top. The imaging plate was analyzed after overnight exposition using a Fuji Film BAS-5000. Non-specific signal was determined with samples containing ^18F-labeled beta-amyloid binder in the presence of assay buffer without brain substrate and competitor. Specific binding was calculated by subtracting the non-specific signal from the measured samples signal. The unblocked ^18F-labeled beta-amyloid binder signal was defined as total binding. IC50 values were calculated by Prism V6 (GraphPad) setting total binding to 100%.

Tau = Tau (Homo sapiens, UniProt P10636); test: Tau binding in AD brain homogenate, competition with 18F-labeled Tau binder; design: High affinity to Tau: key: −: poor; ∘: moderate; +: good; ++: very good; +++: excellent; details: for High affinity to Tau: AD brain homogenate, non-radioactive fluorine-19 derivatives; for IC50: human AD brain homogenate, fluorine-19 derivatives
Protocol: as §2, with “of ^18F-labeled Tau binder. The” for “of ^18F-labeled beta-amyloid binder. The”, “through GF/B 96 well filter plates” for “through GF/B 96-well filter plates”, “containing ^18F-labeled Tau-reference binder in” for “containing ^18F-labeled beta-amyloid binder in”, “unblocked ^18F-labeled Tau-binder signal was” for “unblocked ^18F-labeled beta-amyloid binder signal was”

MAO B = biological target: T3, MAO B (Homo sapiens, UniProt P27338); test: Binding affinity to MAO B in HC brain homogenate, [18F]fluoro deprenyl competition; design: Low affinity to MAO B: key: −: poor; ∘: moderate; +: good; ++: very good; +++: excellent
T3 construct: from tissue; host or cells: human brain homogenate without AD pathology
T3 sequence (P27338 1-520): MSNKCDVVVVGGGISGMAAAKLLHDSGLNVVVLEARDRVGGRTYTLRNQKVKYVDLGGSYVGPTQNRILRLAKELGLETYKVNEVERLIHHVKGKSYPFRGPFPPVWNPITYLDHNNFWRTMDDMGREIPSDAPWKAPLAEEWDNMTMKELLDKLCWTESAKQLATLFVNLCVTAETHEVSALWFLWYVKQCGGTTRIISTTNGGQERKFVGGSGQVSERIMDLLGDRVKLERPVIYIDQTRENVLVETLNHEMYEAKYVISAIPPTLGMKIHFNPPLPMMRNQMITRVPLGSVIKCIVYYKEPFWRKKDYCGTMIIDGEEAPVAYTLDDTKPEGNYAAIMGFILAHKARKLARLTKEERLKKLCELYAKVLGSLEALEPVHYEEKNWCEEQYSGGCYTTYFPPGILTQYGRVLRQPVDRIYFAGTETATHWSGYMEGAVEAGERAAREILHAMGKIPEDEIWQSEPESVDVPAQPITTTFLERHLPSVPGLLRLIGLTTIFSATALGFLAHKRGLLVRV
Protocol: 20 μg of human brain homogenate (without AD pathology) was incubated with a dilution series of each test compound (1000 to 0.06 nM) in the presence of 800 Bq of ^18F-labeled MAO-B binder ([^18F]fluoro deprenyl). The samples were shaken at 110 rpm for 45 min at 37° C. Samples were then filtered through GF/B 96-well filter plates and washed twice with 300 μL assay buffer (PBS containing 0.1% BSA and 2% DMSO). Thereafter, filter plates were sealed and a Fuji Film Imaging Plate (BAS-SR2025) was placed on top. The imaging plate was analyzed after overnight exposition using a Fuji Film BAS-5000. Non-specific signal was determined with samples containing ^18F-labeled fluoro deprenyl in the presence of assay buffer without brain substrate and competitor. Specific binding was calculated by subtracting the non-specific signal from the measured samples signal. The unblocked ^18F-labeled fluoro deprenyl signal was defined as total binding. IC50 values were calculated by Prism V6 (GraphPad) setting total binding to 100%.

[3] = human AD brain homogenate; read-out: IC50 in AD brain homogenate (amyloid-beta)
[4] = human HC brain homogenate; 18F-fluoro deprenyl competition; read-out: IC50 in HC brain homogenate (MAO B)

Sequence of amyloid-beta (P05067 672-711 limits assumed): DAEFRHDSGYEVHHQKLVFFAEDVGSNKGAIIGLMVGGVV
Sequence of Tau (P10636 623-708 limits assumed): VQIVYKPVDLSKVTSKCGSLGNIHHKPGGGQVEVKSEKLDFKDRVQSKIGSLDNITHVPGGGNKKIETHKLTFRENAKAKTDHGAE

| Low affinity to MAO A (HC homogenate) (MAO A [1]) | IC50 (MAO A [1]) [nM] | Low affinity to MAO A (mouse homogenate) (MAO A [2]) | IC50 (MAO A [2]) [nM] | Low affinity to amyloid-beta (amyloid-beta; AD brain homogenate) | IC50 (amyloid-beta; [3]) [nM] | High affinity to Tau (Tau) | IC50 (Tau) [nM] | Low affinity to MAO B (MAO B; HC brain homogenate) | IC50 (MAO B; [4]) [nM] | Structure (SMILES) | IC50 (amyloid-beta; read-out: IC50 in AD brain homogenate (amyloid-beta); human AD brain homogenate) [nM] | IC50 (MAO B; read-out: IC50 in HC brain homogenate (MAO B); human HC brain homogenate; 18F-fluoro deprenyl competition) [nM] |
| --- | --- | --- | --- | --- | --- | --- | --- | --- | --- | --- | --- | --- |
| ++ | 333 | ++ | 181 | +++ | > 1000 | ++ | 13 | +++ | > 1000 | N#Cc1ccc(-c2ccc3c(n2)[nH]c2ccncc23)cc1F [Example F-9] |  |  |
| +++ | > 1000 | +++ | > 1000 | +++ | > 1000 | ++ | 17 | +++ | > 1000 | Fc1cc(-c2ccc3c(n2)[nH]c2ccncc23)c(F)cn1 [Example F-6] |  |  |
| +++ | > 1000 | +++ | > 1000 | +++ | > 1000 | ++ | 29 | +++ | > 1000 | Fc1cc(-c2ccc3c(n2)[nH]c2ccncc23)cc(F)n1 [Example F-5] |  |  |
|  |  | ++ | 152 |  |  | +++ | 8.7 |  |  | N#Cc1cc(-c2ccc3c(n2)[nH]c2ccncc23)ccc1F [Example F-9a] |  |  |
| +++ | 739 | +++ | 701 | +++ | > 1000 | ++ | 10 | ++ | 387 | Fc1ccc(-c2ccc3c(n2)[nH]c2ccncc23)c(F)n1 [Example F-7] |  |  |

Second part, the compound before the results:

| Structure (SMILES) | Low affinity to MAO A (HC homogenate) (MAO A [1]) | IC50 (MAO A [1]) [nM] | Low affinity to MAO A (mouse homogenate) (MAO A [2]) | IC50 (MAO A [2]) [nM] | Low affinity to amyloid-beta (amyloid-beta; AD brain homogenate) | IC50 (amyloid-beta; [3]) [nM] | High affinity to Tau (Tau) | IC50 (Tau) [nM] | Low affinity to MAO B (MAO B; HC brain homogenate) | IC50 (MAO B; [4]) [nM] | IC50 (amyloid-beta; read-out: IC50 in AD brain homogenate (amyloid-beta); human AD brain homogenate) [nM] | IC50 (MAO B; read-out: IC50 in HC brain homogenate (MAO B); human HC brain homogenate; 18F-fluoro deprenyl competition) [nM] |
| --- | --- | --- | --- | --- | --- | --- | --- | --- | --- | --- | --- | --- |
| Fc1nccc(-c2ccc3c(n2)[nH]c2ccncc23)c1F [Example F-3] | +++ | > 1000 | +++ | 830 | +++ | > 1000 | +++ | 7 | +++ | 645 |  |  |
| Fc1cnc(F)c(-c2ccc3c(n2)[nH]c2ccncc23)c1 [Example F-8] | +++ | > 1000 | +++ | > 1000 | +++ | > 1000 | ++ | 9 | +++ | > 1000 |  |  |
| Fc1nccc(-c2ccc3c(n2)[nH]c2ccncc23)c1Cl [Example F-4] | +++ | > 1000 | +++ | > 1000 | +++ | > 1000 | ++ | 26 | +++ | > 1000 |  |  |
| Nc1cc(-c2ccc3c(n2)[nH]c2ccncc23)ccc1F [Example F-10] | + | 24 | + | 25 | +++ |  | +++ |  | +++ |  | 680 | > 1000 |
